Measurements taken from PMC10224356, “Trisubstituted 1,3,5-Triazines as Histamine H4 Receptor Antagonists with Promising Activity In Vivo” (Molecules, 2023).
Values joined by “and” are separate entries in the source; they are usually repeats but may differ in a detail not shown here. Equal entries are not always repeated.

Key:
[1] = target: T1, human histamine H4 receptor (Homo sapiens, UniProt Q9H3N8); assay: [3H]histamine displacement assay, membranes of Sf9 cells expressing hH4R with Gαi2 and Gβ1γ2; format: binding; conditions: for Ki: Sf9 membranes, mean within 95% CI; for inhibition at 1 µM: per cent of inhibition at 1 μM, read-out: hH4R inh. at 1 μM
T1 construct: made in house; host or cells: Sf9 cells (membrane preparations)
T1 sequence (Q9H3N8 whole entry): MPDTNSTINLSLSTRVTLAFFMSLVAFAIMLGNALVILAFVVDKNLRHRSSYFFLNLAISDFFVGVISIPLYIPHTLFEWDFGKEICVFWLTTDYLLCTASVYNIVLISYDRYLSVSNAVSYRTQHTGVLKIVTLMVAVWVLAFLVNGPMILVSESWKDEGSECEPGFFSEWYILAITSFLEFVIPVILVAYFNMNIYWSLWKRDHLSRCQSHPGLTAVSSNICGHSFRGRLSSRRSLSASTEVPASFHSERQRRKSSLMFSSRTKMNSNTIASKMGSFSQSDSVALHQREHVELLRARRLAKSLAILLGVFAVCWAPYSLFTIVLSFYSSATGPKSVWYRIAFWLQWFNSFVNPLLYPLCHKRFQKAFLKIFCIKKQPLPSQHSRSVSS
Method: The affinity of compounds 2–20 for hH4R was evaluated in a binding assay as previously described. [^3H]Histamine was used as a radioligand and hH4R was expressed in Sf9 cells with G protein Gαi2 and Gβ1γ2 subunits. The pharmacological results represented as Ki values are listed in Table 1 (for alicyclic derivatives) and Table 2 (for aliphatic derivatives). […] Results depended on the substituent in the four positions of a triazine (a main structure).
Affinities of all triazine derivatives were determined in a [^3H] histamine (f.c. 10 nM) displacement assay using membrane preparations from Sf9 cells expressing human H4R and co-expressed with Gαi2 and Gβ1γ2 subunits as described previously. Nonspecific binding was determined in the presence of unlabelled JNJ7777120 ([…]).

[2] = target: T2, hH4R (Homo sapiens, UniProt Q9H3N8); assay: cAMP accumulation assay (LANCE Ultra cAMP, CHO-K1 cells stably expressing hH4R); format: cell-based; set-up: expressed in transfected cells; conditions: for IC50: forskolin 10 µM, histamine 140 nM, CHO-K1 hH4R cells, read-out: cAMP hH4R IC50 ± SEM; for Kb: calculated from IC50 by Leff–Dougall variant of Cheng–Prusoff equation, read-out: pKb cAMP ± SEM (converted)
T2 sequence (Q9H3N8 whole entry): as above
Method: Intrinsic activity via the Gα subunit was measured using a LANCE Ultra cAMP detection kit and CHO-K1 cells stably expressing hH4R. Adenyl cyclase was stimulated by forskolin (10 µM).
Intrinsic activity in G protein-dependent pathway was measured with homogenous TR-FRET immunoassay, using LANCE Ultra cAMP kit and CHO-K1 H4R cell line or γ-irradiated recombinant CHO-K1 H4R cells (all from PerkinElmer). […] If the CHO-K1 H4R cell line was used it had been cultivated in DMEM/F12 10% FBS 400 µg/mL geneticin and passaged three times a week. […] The antagonist activity was measured in a white, opaque, 384-well microplate (PerkinElmer) with a total volume of 20 µL. […] After incubation, 5 µL of europium chelate-labelled cAMP tracer and 5 µl of ULight-labelled anti-cAMP mAb working solutions were added, mixed and incubated for 1 h. TR-FRET signal was read using a microplate reader (PerkinElmer, Waltham, MA, USA).

[3] = target: T2, hH4R; assay: as above; format: cell-based; set-up: expressed in transfected cells; conditions: antagonist mode
[4] = target: T2, hH4R; assay: β-arrestin recruitment assay (LiveBLAzer, Tango-H4-bla U2OS cells); format: cell-based; set-up: expressed in transfected cells; host or cells: Tango-H4-bla U2OS cells; conditions: for IC50 / β-arrestin hH4R % of max. Antagonist Activity at 10 µM: antagonist mode; for IC50: histamine 500 nM (EC80), Tango-H4-bla U2OS cells, read-out: β-arrestin hH4R IC50 ± SEM; for Kb: calculated from IC50 by Leff–Dougall variant of Cheng–Prusoff equation, read-out: pKb β-arrestin ± SEM (converted)
Method: Compounds were tested using LiveBLAzer^TM assay and Tango-H4-bla U2OS cells, allowing the estimation of the percentage of β-arrestin recruitment in response to tested treatments.
All used media and reagents except DMSO and tested compounds were purchased from ThermoFisher Scientific, Waltham, MA, USA. DMSO was from CarlRoth (Karlsruhe, Germany) and histamine was from Sigma Aldrich (Darmstadt, Germany). […] The day before the experiment cells were collected from the culture flask with trypsin and seeded in 384 well black-wall, clear-bottom plate (PerkinElmer, Waltham, MA, USA) in concentration 10,000 cells/well in FreeStyle medium. After 24 h of incubation, the cells were checked under the microscope and the dilutions of tested compounds were prepared and added to the wells. In agonist mode compounds were added to the wells and plates were placed in the incubator (HERAcell240, Heraeus, Hanau, Germany) for 16 h. In antagonist mode, first, the compounds were added to the wells, plates were incubated for 30 min, then histamine solution (corresponding to EC80—500 nM) was added and plates were put in the incubator for 16 h. After this time β-lactamase substrate mixture was prepared and added to wells (8 µL/well). Cells were incubated for 2 h at room temperature in the dark then the signal was read using an EnSpire microplate reader (PerkinElmer, Waltham, MA, USA). Drawing of dose-dependent curves and IC50 calculation for compounds were made using GraphPad Prism 6 (GraphPad Software, San Diego, CA, USA).

| SMILES | Ki [1] | melting point [°C] | IC50 ([2]; antagonist mode) [nM] | Kb [2] [nM] | cAMP hH4R % of max. Antagonist Activity at 10 µM [3] [%] | IC50 [4] [nM] | β-arrestin hH4R % of max. Antagonist Activity at 10 µM [4] [%] | Kb [4] [nM] | inhibition at 1 µM [1] [%] | cAMP hH4R % of max. Antagonist Activity at 10 µM ([2]; at 10 µM, antagonist mode) [%] |
| --- | --- | --- | --- | --- | --- | --- | --- | --- | --- | --- |
| CN1CCN(c2nc(N)nc(C3CC3)n2)CC1 [Compound 2, 4-Cyclopropyl-6-(4-methylpiperazin-1-yl)-1,3,5-triazin-2-amine] | 574 nM | 156 to 159 | 847 ± 53 | 302 | 99 | 287 ± 30 | 96 | 47.9 | – | – |
| CN1CCN(c2nc(N)nc(C3CCC3)n2)CC1 [Compound 3, 4-Cyclobutyl-6-(4-methylpiperazin-1-yl)-1,3,5-triazin-2-amine] | ~200 nM and 200 nM | 127 to 132 | 104 ± 17 | 37.2 | 109 | 100 ± 15 | 87 | 16.6 | – | – |
| CN1CCN(c2nc(N)nc(C3CCCC3)n2)CC1 [Compound 4, 4-Cyclopentyl-6-(4-methylpiperazin-1-yl)-1,3,5-triazin-2-amine] | 1240 nM | 163 to 169 | 102 ± 2 | 36.3 | 95 | 68.8 ± 2 | 95 | 11.5 | – | – |
| CN1CCN(c2nc(N)nc(C3CCCCC3)n2)CC1 [Compound 5, 4-Cyclohexyl-6-(4-methylpiperazin-1-yl)-1,3,5-triazin-2-amine] | 432 nM | 133 to 138 | 219 ± 24 | 75.9 | 98 | 101 ± 10 | 92 | 16.6 | – | – |
| CN1CCN(c2nc(N)nc(CC3C=CCC3)n2)CC1 (centres unmarked) [Compound 7, 4-(Cyclopent-2-enylmethyl)-6-(4-methylpiperazin-1-yl)-1,3,5-triazin-2-amine] | 96 nM | 166 to 169 | 33 ± 2 | 11.5 | 104 | 14 ± 1 | 103 | 2.34 | – | – |
| CN1CCN(c2nc(N)nc(CC34CC5CC(CC(C5)C3)C4)n2)CC1 [Compound 9, 4-(1-Adamantylmethyl)-6-(4-methylpiperazin-1-yl)-1,3,5-triazin-2-amine] | – | 200 to 201 | – | – | – | – | – | – | 43 | – |
| CCCCc1nc(N)nc(N2CCN(C)CC2)n1 [Compound 10, 4-Butyl-6-(4-methylpiperazin-1-yl)-1,3,5-triazin-2-amine] | 192 nM | 117 to 118 | 445 ± 10 | 158 | 105 | 82 ± 5 | 96 | 13.5 | – | – |
| CCCC(C)c1nc(N)nc(N2CCN(C)CC2)n1 (centres unmarked) [Compound 11, 4-(4-Methylpiperazin-1-yl)-6-(pentan-2-yl)-1,3,5-triazin-2-amine] | 353 nM | 138 to 140 | 640 ± 49 | 224 | 100 | 97 ± 16 | 97 | 15.8 | – | – |
| CCC(C)Cc1nc(N)nc(N2CCN(C)CC2)n1 (centres unmarked) [Compound 12, 4-(2-Methylbutyl)-6-(4-methylpiperazin-1-yl)-1,3,5-triazin-2-amine] | 321 nM | 115 to 116 | 132 ± 9 | 46.8 | 111 | 38 ± 7 | 100 | 6.17 | – | – |
| COC(C)Cc1nc(N)nc(N2CCN(C)CC2)n1 (centres unmarked) [Compound 13, 4-(2-Methoxypropyl)-6-(4-methylpiperazin-1-yl)-1,3,5-triazin-2-amine] | 4260 nM | 148 to 151 | – | – | – | – | – | – | – | – |
| CC(C)CCc1nc(N)nc(N2CCN(C)CC2)n1 [Compound 14, 4-Isopentyl-6-(4-methylpiperazin-1-yl)-1,3,5-triazin-2-amine] | 203 nM | 123 to 126 | 43 ± 17 | 13.8 | 107 | 24 ± 3 | 101 | 3.89 | – | – |
| CC/C=C/c1nc(N)nc(N2CCN(C)CC2)n1 [Compound 15, (E) 4-(But-1-enyl)-6-(4-methylpiperazin-1-yl)-1,3,5-triazin-2-amine] | 1490 nM | 125 to 126 | – | – | – | – | – | – | – | – |
| C=CCCc1nc(N)nc(N2CCN(C)CC2)n1 [Compound 16, 4-(But-3-enyl)-6-(4-methylpiperazin-1-yl)-1,3,5-triazin-2-amine] | 319 nM | 132 to 133 | 635 ± 123 | 219 | 104 | 146 ± 38 | 94 | 23.4 | – | – |
| C=CCC(C)c1nc(N)nc(N2CCN(C)CC2)n1 (centres unmarked) [Compound 17, 4-(4-Methylpiperazin-1-yl)-6-(pent-4-en-2yl)-1,3,5-triazin-2-amine] | 263 nM | 134 to 136 | 721 ± 70 | 257 | 94 | 744 ± 139 | 92 | 117 | – | – |
| C=CC(C)Cc1nc(N)nc(N2CCN(C)CC2)n1 (centres unmarked) [Compound 18, 4-(2-Methylbut-3-enyl)-6-(4-methylpiperazin-1-yl)-1,3,5-triazin-2-amine] | 262 nM | 113 to 115 | 188 ± 45 | 64.6 | 104 | 66.6 ± 3 | 101 | 11 | – | – |
| CCCCCc1nc(N)nc(N2CCN(C)CC2)n1 [Compound 19, 4-(4-Methylpiperazin-1-yl)-6-pentyl-1,3,5-triazin-2-amine] | 393 nM | 173 to 178 | 419 ± 77 | 145 | 97 | 34.9 ± 7 | 99 | 5.62 | – | – |
| CC/C=C/Cc1nc(N)nc(N2CCN(C)CC2)n1 [Compound 20, (E)-4-(4-Methylpiperazin-1-yl)-6-(pent-2-enyl)-1,3,5-triazin-2-amine] | – | 117 to 119 | – | – | – | 376 ± 9 | 101 | – | 6 | – |
| CN1CCN(c2nc(N)nc(CC3CCCCC3)n2)CC1 [TR-AF-49] | – | – | 271 ± 11 | 95.5 | 98 | 68 ± 7 | 99 | 11.2 | – | – |
| S=C(NC1CCCCC1)N1CCC(c2cnc[nH]2)CC1 [Thioperamide, reference compound] | – | – | – | – | – | – | 102 | – | – | 111 |
